pIC50: −log10 of the molar value. The source made the active and inactive calls. The rule behind the calls is not given here.
Experiments:
MCF7 = assay: Antiproliferative activity against human MCF7 cells after 48 hrs by MTT assay; type: functional, cell-based; conditions: MCF7, 48 h
[1] = target: T1, Epidermal growth factor receptor (Homo sapiens, UniProt P00533); assay: Inhibition of autophosphorylation of recombinant His-tagged EGFR expressed in baculovirus infected Sf9 cells after 1 hr by DELFIA/time-resolved fluorimetry assay
T1 sequence (P00533 whole entry): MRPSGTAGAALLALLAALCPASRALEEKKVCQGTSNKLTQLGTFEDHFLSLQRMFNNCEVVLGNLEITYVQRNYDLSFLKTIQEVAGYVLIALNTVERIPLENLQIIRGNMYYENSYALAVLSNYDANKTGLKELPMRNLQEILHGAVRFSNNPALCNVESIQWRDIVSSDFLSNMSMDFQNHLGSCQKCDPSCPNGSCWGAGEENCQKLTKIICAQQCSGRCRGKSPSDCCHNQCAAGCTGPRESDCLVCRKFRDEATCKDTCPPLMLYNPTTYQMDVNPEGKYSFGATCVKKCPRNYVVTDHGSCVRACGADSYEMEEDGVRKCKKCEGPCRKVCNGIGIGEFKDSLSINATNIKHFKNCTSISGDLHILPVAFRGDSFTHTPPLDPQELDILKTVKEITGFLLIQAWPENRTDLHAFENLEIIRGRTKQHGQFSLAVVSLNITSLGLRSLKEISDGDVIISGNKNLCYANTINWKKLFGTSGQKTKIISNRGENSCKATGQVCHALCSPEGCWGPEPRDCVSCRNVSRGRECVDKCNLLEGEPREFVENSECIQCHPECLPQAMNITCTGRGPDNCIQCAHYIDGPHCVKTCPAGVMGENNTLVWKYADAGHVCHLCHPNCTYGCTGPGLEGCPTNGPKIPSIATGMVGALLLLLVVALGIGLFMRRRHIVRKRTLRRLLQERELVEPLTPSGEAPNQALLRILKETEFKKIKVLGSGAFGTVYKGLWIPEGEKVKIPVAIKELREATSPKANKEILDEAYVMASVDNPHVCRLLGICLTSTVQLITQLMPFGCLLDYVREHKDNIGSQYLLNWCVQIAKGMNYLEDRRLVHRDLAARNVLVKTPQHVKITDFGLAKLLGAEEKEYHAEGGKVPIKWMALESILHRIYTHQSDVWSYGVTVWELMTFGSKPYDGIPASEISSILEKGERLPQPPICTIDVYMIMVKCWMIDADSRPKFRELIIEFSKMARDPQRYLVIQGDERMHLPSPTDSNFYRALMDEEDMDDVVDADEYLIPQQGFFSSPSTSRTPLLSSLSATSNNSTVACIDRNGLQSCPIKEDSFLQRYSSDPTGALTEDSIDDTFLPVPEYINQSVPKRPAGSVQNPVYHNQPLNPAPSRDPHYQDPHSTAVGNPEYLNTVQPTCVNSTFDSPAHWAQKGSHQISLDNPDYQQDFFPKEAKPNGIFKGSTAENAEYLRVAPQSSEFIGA

[2] = target: T1, Epidermal growth factor receptor; assay: Inhibition of EGF-stimulated EGFR autophosphorylation in human MCF7 cells at >1.5 uM treated 1 hr before EGF challenge measured after 15 mins by Western immunoblot analysis; type: cell-based

Row | SMILES | pIC50 (MCF7) | pIC50 [1] | inhibition [2]
1 | Cc1ccc(S(=O)(=O)NC(=O)c2ccc(Cl)nc2)cc1 | 4.76 | < 4.52 | 
2 | Cc1ccc(S(=O)(=O)NC(=O)c2cccnc2)cc1 | 4.92 | 4.61 | 
3 | O=C(NS(=O)(=O)c1ccc(Br)cc1)c1cccnc1 | 4.83 | < 4.52 | 
4 | O=C(NS(=O)(=O)c1ccc(F)cc1)c1ccc(Cl)nc1 | 4.77 | < 4.52 | 
5 | O=C(NS(=O)(=O)c1ccccc1)c1cccnc1Cl | 4.85 | < 4.52 | 
6 | O=C(NS(=O)(=O)c1ccc(F)cc1)c1cccnc1 | 4.80 | < 4.52 | 
7 | O=C(NS(=O)(=O)c1ccc(F)cc1)c1cccnc1Cl | 4.90 | 4.54 | 
8 | Cc1ccc(S(=O)(=O)NC(=O)c2cncc(Br)c2)cc1 | 5.03 | 4.92 | 
9 | O=C(NS(=O)(=O)c1ccc(Cl)cc1)c1cccnc1 | 4.89 | 4.60 | 
10 | O=C(NS(=O)(=O)c1ccccc1)c1cccnc1 | 4.84 | < 4.52 | 
11 | O=C(NS(=O)(=O)c1ccc(Br)cc1)c1cccnc1Cl | 4.94 | 4.80 | 
12 | O=C(NS(=O)(=O)c1ccc(Cl)cc1)c1cccnc1Cl | 4.99 | 4.70 | 
13 | Cc1ccc(S(=O)(=O)NC(=O)c2cccnc2Cl)cc1 | 4.90 | 4.57 | 
14 | O=C(NS(=O)(=O)c1ccccc1)c1ccc(Cl)nc1 | 4.85 | < 4.52 | 
15 | Cc1ccc(C(=O)NS(=O)(=O)c2ccccc2)c(Cl)n1 | 4.87 | 4.67 | 

Stronger by pIC50 (MCF7), values ahead:

Row | pIC50 (MCF7) | pIC50 [1] | inhibition [2] | SMILES
16 | 5.04 | 4.54 |  | O=C(NS(=O)(=O)c1ccc(Br)cc1)c1ccc(Cl)nc1
17 | 5.07 | 4.82 |  | Cc1ccc(S(=O)(=O)NC(=O)c2ccc(C)nc2Cl)cc1
18 | 5.09 | 4.74 |  | O=C(NS(=O)(=O)c1ccc(Cl)cc1)c1ccc(Cl)nc1
19 | 5.71 | 5.58 |  | Cc1ccc(C(=O)NS(=O)(=O)c2ccc(Br)cc2)c(Cl)n1
20 | 5.87 | 5.92 |  | Cc1ccc(C(=O)NS(=O)(=O)c2ccc(Cl)cc2)c(Cl)n1
21 | 6.01 | 5.49 |  | O=C(NS(=O)(=O)c1ccc(F)cc1)c1cncc(Br)c1
22 | 6.47 | 5.68 |  | O=C(NS(=O)(=O)c1ccc(Br)cc1)c1cncc(Br)c1
23 | 7.15 | 7.05 | Active | O=C(NS(=O)(=O)c1ccc(Cl)cc1)c1cncc(Br)c1

Reference: ChEMBL document CHEMBL1944626, “Design, synthesis and biological evaluation of N-phenylsulfonylnicotinamide derivatives as novel antitumor inhibitors” (Bioorg Med Chem, 2012)
